Data from publication PMC10721633 (Nature Communications, 2023).

What was measured:
DnaA = target: T1, DnaA (Bacillus subtilis, UniProt P05648); assay: single-molecule TIRF DNA strand separation; assay type: biochemical; conditions: BUS DNA scaffold, 50 nM DnaA, 10 mM magnesium acetate, 100 mM potassium glutamate, pH 7.6
T1 construct: full length; His14-SUMO tag cleaved; E. coli BL21(DE3)-pLysS

DnaA^104-446 = target: T2, DnaA^104-446 (Bacillus subtilis, UniProt P05648); assay: cryo-EM structure; assay type: binding; conditions: BUS DNA scaffold, 2 uM ATP, 1 mM magnesium acetate, pH 7.5, 37 °C, glutaraldehyde crosslinked
T2 construct: domains III-IV, residues 104-446; His14-SUMO tag cleaved; E. coli BL21(DE3)-pLysS; heptamer on tailed BUS DNA, glutaraldehyde crosslinked

[1] = target: the molecule itself; assay: cryo-EM structure; 4 µM partially ssDNA scaffold with 40 µM DnaA^104–446 monomer, 10 mM HEPES pH 7.5, 100 mM potassium glutamate, 1 mM magnesium acetate, 2 µM ATP, 37 °C 10 min; cross-linked with 0.1% glutaraldehyde, multimeric complex isolated by SEC (Superdex 200); oligomer assembled on DNA

T1 sequence (P05648 whole entry): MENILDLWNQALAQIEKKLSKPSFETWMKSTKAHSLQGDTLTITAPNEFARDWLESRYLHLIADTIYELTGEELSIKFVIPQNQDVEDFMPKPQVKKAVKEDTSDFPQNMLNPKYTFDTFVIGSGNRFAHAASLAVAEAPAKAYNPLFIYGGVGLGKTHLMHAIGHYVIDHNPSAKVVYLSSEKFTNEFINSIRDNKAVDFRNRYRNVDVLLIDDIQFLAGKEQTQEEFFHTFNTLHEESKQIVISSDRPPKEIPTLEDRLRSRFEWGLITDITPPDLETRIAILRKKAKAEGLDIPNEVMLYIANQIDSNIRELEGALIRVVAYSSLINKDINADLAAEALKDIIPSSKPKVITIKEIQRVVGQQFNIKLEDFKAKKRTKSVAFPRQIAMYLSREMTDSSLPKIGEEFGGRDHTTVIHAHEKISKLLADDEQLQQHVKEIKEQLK

Nc1ncnc2c1ncn2[C@@H]1O[C@H](COP(=O)(O)OP(=O)(O)OP(=O)(O)O)[C@@H](O)[C@H]1O [ATP]
single-molecule TIRF DNA strand separation (DnaA): The addition of DnaA^ATP to the immobilized DNA scaffolds stimulated a reduction in the number
cryo-EM structure (DnaA^104-446): The cryo-EM model reveals seven DnaA^ATP protomers (termed DnaA1-7) engaging the DNA scaffold

B1: DnaA^104–446 (Bacillus subtilis DnaA lacking domains I-II; domains III-IV) (domain or fragment, UniProt P05648 104-446, looked up)
chain: SDFPQNMLNPKYTFDTFVIGSGNRFAHAASLAVAEAPAKAYNPLFIYGGVGLGKTHLMHAIGHYVIDHNPSAKVVYLSSEKFTNEFINSIRDNKAVDFRNRYRNVDVLLIDDIQFLAGKEQTQEEFFHTFNTLHEESKQIVISSDRPPKEIPTLEDRLRSRFEWGLITDITPPDLETRIAILRKKAKAEGLDIPNEVMLYIANQIDSNIRELEGALIRVVAYSSLINKDINADLAAEALKDIIPSSKPKVITIKEIQRVVGQQFNIKLEDFKAKKRTKSVAFPRQIAMYLSREMTDSSLPKIGEEFGGRDHTTVIHAHEKISKLLADDEQLQQHVKEIKEQLK
notes: also called DnaA1-7 (the seven protomers in the BUS complex); DnaA^ATP; source: E. coli BL21(DE3)-pLysS, purified (HisTrap, HiTrap Heparin, SUMO protease digestion, second HisTrap flow-through); not shown: His14, N-terminal, cleaved; SUMO, N-terminal, cleaved
stoichiometry N [1]: 7
